Here are results for ten compounds from ChEMBL document CHEMBL1201862, “PubChem BioAssay data set” (2004).

What all share (assay): NCI anticancer screen, dose series, 48 h
In assay [1] the test system is 786-0.
The subject of assay [2] is BT-549.
Assay [3] has as its system CAKI-1.
The subject of assay [4] is HOP-92.
The test system of assay [5] is K562.
The test system of assay [6] is KM12.
Assay [7] has as its system M14.
Assay [8] relates to MDA-MB-231.
Assay [9] concerns MDA-MB-435.
In assay [10] the test system is NCI-H460.
Assay [11] deals with NCI-H522.
Assay [12] deals with OVCAR-4.
For assay [13], the system named is OVCAR-8.
Assay [14] deals with PC-3.
For assay [15], the system named is RPMI-8226.
For assay [16], the system named is SF-295.
The subject of assay [17] is SNB-75.
For assay [18], the system named is T47D.
Assay [19] deals with UACC-257.

The structures appear in SMILES notation.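 Following 48 hours of exposure in 96-well plates, responses at five concentrations were used to interpolate endpoints linearly. Abbreviation: GI50, concentration required for 50% inhibition of growth.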 Activity calls are given as the source filed them. Cut-off read from the data, not from the text of the source: active = GI50 up to about 1.1 µM and inactive = higher.

On to `Cc1nc(-c2ccccc2)cn2c1nc1ccccc12`, for which the GI50 in assay [1] is 21 µM (inactive); in assay [2], 17.4 µM (inactive); in assay [3] it was 21.1 µM (inactive); in assay [4], 21 µM (inactive); in assay [5], > 61.7 µM (inactive); in [6] it was 20.8 µM (inactive). In addition, the GI50 in [7] is 30.5 µM (inactive); in assay [8] it was 29.9 µM (inactive); in assay [9], 19.2 µM (inactive); in assay [10], 17.7 µM (inactive); in [11], 24.9 µM (inactive); in assay [12], 20.9 µM (inactive). Moreover, the GI50 in assay [13] was 18.8 µM (inactive); in assay [14], 24.7 µM (inactive); in [15] it was 41.1 µM (inactive); in assay [16], 23.9 µM (inactive); in [17], 17.2 µM (inactive); in assay [18], 2.05 µM (inactive). Also, the GI50 in assay [19] was 29 µM (inactive).
Take `C/C(=N\O)c1cccc[n+]1Cc1ccccc1`: the GI50 in [1], in assay [2], in [3], in assay [4], in assay [5] and in assay [6] was > 100 µM (inactive) each time. Also, the GI50 in assay [7], in assay [8], in assay [9], in [10], in assay [11] and in assay [12] was > 100 µM (inactive) throughout. Moreover, the GI50 in assay [13], in assay [14], in assay [15], in assay [16], in assay [17] and in assay [18] was > 100 µM (inactive) each time. Besides, the GI50 in [19] is > 100 µM (inactive).
For `COc1cc(/C=C2\C[C@H]3[C@@H]4CCC5=CC(=O)CC[C@]5(C)[C@H]4CC[C@]3(C)C2=O)cc(OC)c1OC`, the GI50 is 23.1 µM (inactive) in [1]; 3.29 µM (inactive) in assay [2]; 5.37 µM (inactive) in assay [3]; 13.1 µM (inactive) in assay [4]; 3.82 µM (inactive) in [5]; 3.58 µM (inactive) in [6]. Also, the GI50 is 3.74 µM (inactive) in assay [7]; 7.74 µM (inactive) in [8]; 3.36 µM (inactive) in assay [9]; 6.35 µM (inactive) in assay [10]; 3.2 µM (inactive) in assay [11]; 6.12 µM (inactive) in [12]. Further, the GI50 in assay [13] was 4 µM (inactive); in assay [14] it was 3.23 µM (inactive); in assay [15], 2.38 µM (inactive); in assay [16], 5.93 µM (inactive); in assay [17] it was 9.08 µM (inactive); in [18] it was 2.04 µM (inactive). In addition, in [19], the GI50 is 6.07 µM (inactive).
Regarding `Oc1cc(Cl)cc2cc(Cl)cnc12`, the GI50 in [1] was 23 µM (inactive); in assay [2], 4.73 µM (inactive); in assay [3], 12.9 µM (inactive); in [4] it was 21.5 µM (inactive); in [5], 0.989 µM (active); in assay [6], 5.13 µM (inactive). In addition, the GI50 was 3.3 µM (inactive) in [7]; 3.56 µM (inactive) in assay [8]; 2.87 µM (inactive) in assay [9]; 1.79 µM (inactive) in assay [10]; 3.16 µM (inactive) in assay [11]; 1.55 µM (inactive) in [12]. Further, the GI50 is 2.28 µM (inactive) in assay [13]; 2.94 µM (inactive) in assay [14]; 2.59 µM (inactive) in [15]; 1.92 µM (inactive) in [16]; 5.35 µM (inactive) in [17]; 3.34 µM (inactive) in [18]. In addition, the GI50 in assay [19] was 3.73 µM (inactive).
Regarding `COC(=O)C12Oc3ccc(-c4ccc5c(c4O)C(O)=C4C(=O)CC(C)C(O)C4(C(=O)OC)O5)c(O)c3C(O)=C1C(=O)CC(C)C2O` (stereo not given), the GI50 in assay [1] is 0.314 µM (active); in [2], 0.262 µM (active); in assay [3] it was 0.346 µM (active); in assay [4], 0.466 µM (active); in assay [5], 0.0753 µM (active); in assay [6], 0.0555 µM (active). The GI50 in assay [7] was 0.104 µM (active); in assay [8], 0.63 µM (active); in assay [9] it was 0.0634 µM (active); in assay [10], 0.0421 µM (active); in [11] it was 0.0304 µM (active); in assay [12], 0.467 µM (active). Also, the GI50 is 0.094 µM (active) in [13]; 0.0764 µM (active) in assay [14]; 0.0494 µM (active) in assay [15]; 0.211 µM (active) in assay [16]; 0.241 µM (active) in [17]; 0.25 µM (active) in [18]. In assay [19], the GI50 is 0.073 µM (active).
As for `O=C1c2c(Br)sc(Br)c2[C@@H](Cl)[C@H]1Cl`, the GI50 is 24.5 µM (inactive) in [1]; 20.6 µM (inactive) in [2]; 20.7 µM (inactive) in assay [3]; 21 µM (inactive) in assay [4]; 10 µM (inactive) in [5]; 17.2 µM (inactive) in assay [6]. Also, the GI50 is 19.7 µM (inactive) in [7]; 19.5 µM (inactive) in assay [8]; 19.3 µM (inactive) in [9]; 19.4 µM (inactive) in assay [10]; 3.07 µM (inactive) in assay [11]; 18.2 µM (inactive) in assay [12]. Besides, the GI50 in assay [13] was 15.1 µM (inactive); in assay [14], 18.7 µM (inactive); in assay [15], 18.2 µM (inactive); in [16], 20.5 µM (inactive); in assay [17], 17.6 µM (inactive); in assay [18], 19 µM (inactive). In addition, the GI50 in assay [19] was 15.9 µM (inactive).
Take `CC(C)NC(=O)OCc1c(COC(=O)NC(C)C)c(-c2cc[n+](COC(=O)C(C)(C)C)cc2)n2c1CCC2`: the GI50 is > 100 µM (inactive) in assay [1]; > 100 µM (inactive) in assay [2]; 60 µM (inactive) in [3]; > 100 µM (inactive) in [4]; > 100 µM (inactive) in [5]; > 100 µM (inactive) in assay [6]. For the same compound, the GI50 in [7], in assay [8], in [9], in [10], in assay [11] and in assay [12] was > 100 µM (inactive) each time. The GI50 in [13], in assay [14], in assay [15], in assay [16], in assay [17] and in [18] was > 100 µM (inactive) each time. Besides, the GI50 in assay [19] was > 100 µM (inactive).
`CS(=O)(=O)Nc1ccc2c(c1)oc(=O)c1ccccc12`: the GI50 in assay [1], in assay [2], in assay [3], in assay [4], in assay [5] and in assay [6] was > 100 µM (inactive) each time. Also, the GI50 in assay [7], in assay [8], in [9], in assay [10], in assay [11] and in assay [12] was > 100 µM (inactive) throughout. The GI50 in assay [13], in [14], in assay [15], in assay [16], in [17] and in [18] was > 100 µM (inactive) each time. Also, the GI50 in [19] was > 100 µM (inactive).
Turning to `COC(=O)C12CCC(C(=O)OC)(Cc3c(c4ccccc4n3S(=O)(=O)c3ccccc3)C1)C2=O` (stereo not given), the GI50 in [1] is > 42.1 µM (inactive); in assay [2] it was > 100 µM (inactive); in assay [3], > 62.4 µM (inactive); in assay [4], 1 µM (active); in assay [5], 62.1 µM (inactive); in assay [6], > 100 µM (inactive). Moreover, the GI50 in assay [7] was > 63.8 µM (inactive); in assay [8], > 100 µM (inactive); in assay [9] it was > 100 µM (inactive); in assay [10] it was > 67 µM (inactive); in assay [11], 20 µM (inactive); in assay [12], > 61.7 µM (inactive). In addition, the GI50 in [13] was > 92.7 µM (inactive); in [14], > 63.5 µM (inactive); in [15], > 100 µM (inactive); in assay [16], > 51.1 µM (inactive); in assay [17] it was > 60.7 µM (inactive); in assay [18], > 100 µM (inactive). Also, the GI50 in assay [19] was > 64.1 µM (inactive).
Take `CCOC(=O)/C=C(\C(=O)OCC)n1cnc2c(N)ncnc21`: the GI50 is 2.77 µM (inactive) in assay [1]; 12.1 µM (inactive) in [2]; 1.4 µM (inactive) in [3]; 2.28 µM (inactive) in [4]; 1.99 µM (inactive) in assay [5]; 14.8 µM (inactive) in assay [6]. Moreover, the GI50 in assay [7] was 10.4 µM (inactive); in [8], 7.31 µM (inactive); in [9], 11.8 µM (inactive); in assay [10], 17.9 µM (inactive); in assay [11], 1.6 µM (inactive); in [12], 15.2 µM (inactive). The GI50 in assay [13] is 7.45 µM (inactive); in [14] it was 13.3 µM (inactive); in assay [15], 2.02 µM (inactive); in assay [16] it was 16.8 µM (inactive); in [17], 12.4 µM (inactive); in [18] it was 2.92 µM (inactive). In addition, the GI50 in assay [19] was 14.5 µM (inactive).
